Results taken from US11058678B2 (Enanta Pharmaceuticals, Inc., priority 2018, dated 2021).

test system: HBV (2.2.15 cells); test: Antiviral activity in 2.2.15 cells: reduction of viral product accumulation (qPCR of lysates, HBsAg or HBeAg ELISA); type: cell-based, hepatitis B virus (HBV); details: Hepatitis B virus, 120 h, day 5 post treatment, 50% reduction of viral product accumulation in lysates or supernatants vs no drug controls, readout (qPCR, HBsAg, HBeAg) not specified
Method: 2.2.15 cells are passaged upon attaining confluency in DMEM/F12 media in the presence of 10% FBS, Penn/Strep, and 250 ug/mL G418. Novel compounds are 5 fold serially diluted in DMSO and added to 96 well plates containing 35,000 cells/well at a 1:200 dilution so that the final concentration of DMSO is 0.5%. On day 5, post treatment cell lysates and supernatants are harvested for analysis.
Cells are lysed using Agilent Sidestep Lysis buffer, diluted 1:100 and quantified via quantitative real time PCR. Commercially available ELISA kits are used to quantitate the viral proteins HBsAg (Alpco) or HBeAg (US Biological) by following the manufacturer's recommended protocol after diluting samples to match the linear range of their respective assays. Irrespective of readout, compound concentrations that reduce viral product accumulation in the cell lysates or supernatants by 50% relative to no drug controls (EC50) are reported; EC50 ranges are as follows: A<0.1 μM; B 0.1-1 μM; C>1 μM.

Row | SMILES | EC50 [nM]
1 | CC(C)[C@@H]1Cc2c(cc(-c3ccn(C)n3)c3c2CCO3)-c2cc(=O)c(C(=O)O)cn21 [Example 98, (S)-5-isopropyl-12-(1-methyl-1H-pyrazol-3-yl)-9-oxo-2,3,4,9-tetrahydro-5H-furo[3,2-f]pyrido[2,1-a]isoquinoline-8-carboxylic Acid] | > 1000
2 | CC(C)[C@@H]1Cc2c(cc(-c3cnn(C)c3)c3c2CCO3)-c2cc(=O)c(C(=O)O)cn21 [Example 97, (S)-5-isopropyl-12-(1-methyl-1H-pyrazol-4-yl)-9-oxo-2,3,4,9-tetrahydro-5H-furo[3,2-f]pyrido[2,1-a]isoquinoline-8-carboxylic Acid] | < 100
3 | CC(C)(C)[C@@H]1Cc2c(cc(-c3ccn[nH]3)c3c2CCO3)-c2cc(=O)c(C(=O)O)cn21 [Example 82, (S)-5-(tert-butyl)-9-oxo-12-(1H-pyrazol-5-yl)-2,3,4,9-tetrahydro-5H-furo[3,2-f]pyrido[2,1-a]isoquinoline-8-carboxylic Acid] | < 100
4 | Cn1ccc(-c2cc3c(c4c2OC(C)(C)C4)C[C@@H](C(C)(C)C)n2cc(C(=O)O)c(=O)cc2-3)n1 [Example 144, (S)-5-(tert-butyl)-2,2-dimethyl-12-(1-methyl-1H-pyrazol-3-yl)-9-oxo-2,3,4,9-tetrahydro-5H-furo[3,2-f]pyrido[2,1-a]isoquinoline-8-carboxylic Acid] | > 1000
5 | COCCCCc1cc2c(cc1N1CC(F)(F)C1)-c1cc(=O)c(C(=O)O)cn1[C@H](C(C)(C)C)C2 [Example 153, (S)-6-(tert-butyl)-10-(3,3-difluoroazetidin-1-yl)-9-(4-methoxybutyl)-2-oxo-6,7-dihydro-2H-pyrido[2,1-a]isoquinoline-3-carboxylic Acid] | < 100
6 | COCCCOc1cc2c(cc1-c1cnnn1C)-c1cc(=O)c(C(=O)O)cn1[C@H](C(C)(C)C)C2 [Example 48, (S)-6-(tert-butyl)-9-(3-methoxypropoxy)-10-(1-methyl-1H-1,2,3-triazol-5-yl)-2-oxo-6,7-dihydro-2H-pyrido[2,1-a]isoquinoline-3-carboxylic Acid] | < 100
7 | COCCCOc1cc2c(cc1-n1cccn1)-c1cc(=O)c(C(=O)O)cn1[C@@H](C(C)(C)C)C2 [Example 51, (R)-6-(tert-butyl)-9-(3-methoxypropoxy)-2-oxo-10-(1H-pyrazol-1-yl)-6,7-dihydro-2H-pyrido[2,1-a]isoquinoline-3-carboxylic Acid] | < 100
8 | CC(C)(C)[C@@H]1Cc2c(cc(-c3cccc(C(F)(F)F)c3)c3c2CCO3)-c2cc(=O)c(C(=O)O)cn21 [Example 81, (S)-5-(tert-butyl)-9-oxo-12-(3-(trifluoromethyl)phenyl)-2,3,4,9-tetrahydro-5H-furo[3,2-f]pyrido[2,1-a]isoquinoline-8-carboxylic Acid] | > 1000
9 | CC(C)[C@@H]1Cc2c(cc(-c3cccc(Cl)c3)c3c2CCO3)-c2cc(=O)c(C(=O)O)cn21 [Example 112, (S)-12-(3-chlorophenyl)-5-isopropyl-9-oxo-2,3,4,9-tetrahydro-5H-furo[3,2-f]pyrido[2,1-a]isoquinoline-8-carboxylic Acid] | > 1000
10 | Cn1nccc1-c1cc2c(c3c1OC(C)(C)C3)C[C@@H](C(C)(C)C)n1cc(C(=O)O)c(=O)cc1-2 [Example 150, (S)-5-(tert-butyl)-2,2-dimethyl-12-(1-methyl-1H-pyrazol-5-yl)-9-oxo-2,3,4,9-tetrahydro-5H-furo[3,2-f]pyrido[2,1-a]isoquinoline-8-carboxylic Acid] | > 1000
11 | COCCCOc1cc2c(cc1-c1cccs1)-c1cc(=O)c(C(=O)O)cn1[C@H]1[C@@H]2COC1(C)C [Example 142, (3aS,12bR)-11-(3-methoxypropoxy)-3,3-dimethyl-7-oxo-10-(thiophen-2-yl)-3,3a,7,12b-tetrahydro-1H-furo[3,4-c]pyrido[2,1-a]isoquinoline-6-carboxylic Acid] | < 100
12 | COCCCOc1cc2c(cc1-c1cnc(OC)nc1)-c1cc(=O)c(C(=O)O)cn1[C@H](C(C)(C)C)C2 [Example 44, (S)-6-(tert-butyl)-9-(3-methoxypropoxy)-10-(2-methoxypyrimidin-5-yl)-2-oxo-6,7-dihydro-2H-pyrido[2,1-a]isoquinoline-3-carboxylic Acid] | < 100
13 | CC(C)[C@@H]1Cc2c(cc(-c3ccco3)c3c2CCO3)-c2cc(=O)c(C(=O)O)cn21 [Example 101, (S)-12-(furan-2-yl)-5-isopropyl-9-oxo-2,3,4,9-tetrahydro-5H-furo[3,2-f]pyrido[2,1-a]isoquinoline-8-carboxylic Acid] | < 100
14 | CC1(C)Cc2c3c(cc(-c4ccsc4)c2O1)-c1cc(=O)c(C(=O)O)cn1[C@H](C(C)(C)C)C3 [Example 149, (S)-5-(tert-butyl)-2,2-dimethyl-9-oxo-12-(thiophen-3-yl)-2,3,4,9-tetrahydro-5H-furo[3,2-f]pyrido[2,1-a]isoquinoline-8-carboxylic Acid] | > 1000
15 | COCCCOc1cc2c(cc1-c1nnc(C)o1)-c1cc(=O)c(C(=O)O)cn1[C@H](C(C)(C)C)C2 [Example 49, (S)-6-(tert-butyl)-9-(3-methoxypropoxy)-10-(5-methyl-1,3,4-oxadiazol-2-yl)-2-oxo-6,7-dihydro-2H-pyrido[2,1-a]isoquinoline-3-carboxylic Acid] | < 100
16 | COCCCOc1cc2c(cc1C1CCCCO1)-c1cc(=O)c(C(=O)O)cn1[C@H](C(C)(C)C)C2 (stereo partly drawn) [Example 41, (6S)-6-(tert-butyl)-9-(3-methoxypropoxy)-2-oxo-10-(tetrahydro-2H-pyran-2-yl)-6,7-dihydro-2H-pyrido[2,1-a]isoquinoline-3-carboxylic Acid] | < 100
17 | COc1cccc(-c2cc3c(c4c2OCC4)C[C@@H](C(C)C)n2cc(C(=O)O)c(=O)cc2-3)c1 [Example 92, (S)-5-isopropyl-12-(3-methoxyphenyl)-9-oxo-2,3,4,9-tetrahydro-5H-furo[3,2-f]pyrido[2,1-a]isoquinoline-8-carboxylic Acid] | < 100
18 | CC1(C)Cc2c3c(cc(-c4cccs4)c2O1)-c1cc(=O)c(C(=O)O)cn1[C@H](C(C)(C)C)C3 [Example 152, (S)-5-(tert-butyl)-2,2-dimethyl-9-oxo-12-(thiophen-2-yl)-2,3,4,9-tetrahydro-5H-furo[3,2-f]pyrido[2,1-a]isoquinoline-8-carboxylic Acid] | > 1000
19 | COCCCOc1cc2c(cc1-c1cnco1)-c1cc(=O)c(C(=O)O)cn1[C@H]1[C@@H]2COC1(C)C [Example 121, (3aS,12bR)-11-(3-methoxypropoxy)-3,3-dimethyl-10-(oxazol-5-yl)-7-oxo-3,3a,7,12b-tetrahydro-1H-furo[3,4-c]pyrido[2,1-a]isoquinoline-6-carboxylic Acid] | < 100
20 | CCn1cc(-c2cc3c(cc2OCCCOC)C[C@@H](C(C)(C)C)n2cc(C(=O)O)c(=O)cc2-3)cn1 [Example 34, (S)-6-(tert-butyl)-10-(1-ethyl-1H-pyrazol-4-yl)-9-(3-methoxypropoxy)-2-oxo-6,7-dihydro-2H-pyrido[2,1-a]isoquinoline-3-carboxylic Acid] | < 100
21 | CC1(C)Cc2c3c(cc(-c4cnsc4)c2O1)-c1cc(=O)c(C(=O)O)cn1[C@H](C(C)(C)C)C3 [Example 145, (S)-5-(tert-butyl)-12-(isothiazol-4-yl)-2,2-dimethyl-9-oxo-2,3,4,9-tetrahydro-5H-furo[3,2-f]pyrido[2,1-a]isoquinoline-8-carboxylic Acid] | > 1000
22 | CC(C)[C@@H]1Cc2c(cc(-c3cccnc3)c3c2CCO3)-c2cc(=O)c(C(=O)O)cn21 [Example 105, (S)-5-isopropyl-9-oxo-12-(pyridin-3-yl)-2,3,4,9-tetrahydro-5H-furo[3,2-f]pyrido[2,1-a]isoquinoline-8-carboxylic Acid] | < 100
23 | CC(C)(C)[C@@H]1Cc2c(cc(C3COC3)c3c2CCO3)-c2cc(=O)c(C(=O)O)cn21 [Example 131, (S)-5-(tert-butyl)-12-(oxetan-3-yl)-9-oxo-2,3,4,9-tetrahydro-5H-furo[3,2-f]pyrido[2,1-a]isoquinoline-8-carboxylic Acid] | < 100
24 | COCCCOc1cc2c(cc1-c1ccccc1Cl)-c1cc(=O)c(C(=O)O)cn1[C@H]1[C@@H]2COC1(C)C [Example 139, (3aS,12bR)-10-(2-chlorophenyl)-11-(3-methoxypropoxy)-3,3-dimethyl-7-oxo-3,3a,7,12b-tetrahydro-1H-furo[3,4-c]pyrido[2,1-a]isoquinoline-6-carboxylic Acid] | < 100
25 | COCCCOc1cc2c(cc1-n1ccc3ccccc31)-c1cc(=O)c(C(=O)O)cn1[C@H](C(C)(C)C)C2 [Example 52, (S)-6-(tert-butyl)-10-(1H-indol-1-yl)-9-(3-methoxypropoxy)-2-oxo-6,7-dihydro-2H-pyrido[2,1-a]isoquinoline-3-carboxylic Acid] | < 100
26 | CC(C)[C@@H]1Cc2c(cc(-c3cccc(F)c3)c3c2CCO3)-c2cc(=O)c(C(=O)O)cn21 [Example 107, (S)-12-(3-fluorophenyl)-5-isopropyl-9-oxo-2,3,4,9-tetrahydro-5H-furo[3,2-f]pyrido[2,1-a]isoquinoline-8-carboxylic Acid] | < 100
27 | CC(C)[C@@H]1Cc2c(cc(-n3cccn3)c3c2CCO3)-c2cc(=O)c(C(=O)O)cn21 [Example 116] | < 100
28 | CC(C)(C)[C@@H]1Cc2c(cc(N3CCCC3)c3c2CCO3)-c2cc(=O)c(C(=O)O)cn21 [Example 88, (S)-5-(tert-butyl)-9-oxo-12-(pyrrolidin-1-yl)-2,3,4,9-tetrahydro-5H-furo[3,2-f]pyrido[2,1-a]isoquinoline-8-carboxylic Acid] | < 100
